Values quoted from earlier work as cited in US20130338178A1, “SIRTUIN MODULATORS AS INHIBITORS OF CYTOMEGALOVIRUS” (THE TRUSTEES OF PRINCETON UNIVERSITY, priority 2011, published 2013).

Tests used:
SIRT1 = molecular target: T1, SIRT1 (Homo sapiens, UniProt Q96EB6); details: SIRT1 preincubated with NAD+ and compound, means ± SD, cited from earlier work
T1 sequence (Q96EB6 1-747): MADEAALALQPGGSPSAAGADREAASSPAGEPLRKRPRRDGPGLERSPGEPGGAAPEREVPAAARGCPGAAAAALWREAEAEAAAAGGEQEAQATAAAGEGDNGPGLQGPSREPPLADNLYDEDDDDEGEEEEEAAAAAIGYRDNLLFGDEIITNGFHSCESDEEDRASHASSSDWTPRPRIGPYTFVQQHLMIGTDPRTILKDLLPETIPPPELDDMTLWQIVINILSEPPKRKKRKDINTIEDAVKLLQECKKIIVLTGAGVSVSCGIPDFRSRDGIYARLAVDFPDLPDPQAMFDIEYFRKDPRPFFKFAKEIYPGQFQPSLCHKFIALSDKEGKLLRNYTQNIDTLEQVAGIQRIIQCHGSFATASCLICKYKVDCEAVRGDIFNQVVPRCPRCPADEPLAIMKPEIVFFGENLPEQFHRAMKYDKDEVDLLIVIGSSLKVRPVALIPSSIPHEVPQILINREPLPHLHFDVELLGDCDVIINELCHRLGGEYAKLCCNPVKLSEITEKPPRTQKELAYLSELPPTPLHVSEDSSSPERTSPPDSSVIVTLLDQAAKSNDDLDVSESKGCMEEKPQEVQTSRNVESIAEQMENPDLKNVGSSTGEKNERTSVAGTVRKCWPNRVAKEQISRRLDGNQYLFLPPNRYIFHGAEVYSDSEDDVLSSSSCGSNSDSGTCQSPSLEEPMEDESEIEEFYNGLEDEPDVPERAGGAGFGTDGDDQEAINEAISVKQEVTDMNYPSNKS

SIRT2 = molecular target: T2, SIRT2 (Homo sapiens, UniProt Q8IXJ6); details: cited from earlier work
T2 sequence (Q8IXJ6 1-389): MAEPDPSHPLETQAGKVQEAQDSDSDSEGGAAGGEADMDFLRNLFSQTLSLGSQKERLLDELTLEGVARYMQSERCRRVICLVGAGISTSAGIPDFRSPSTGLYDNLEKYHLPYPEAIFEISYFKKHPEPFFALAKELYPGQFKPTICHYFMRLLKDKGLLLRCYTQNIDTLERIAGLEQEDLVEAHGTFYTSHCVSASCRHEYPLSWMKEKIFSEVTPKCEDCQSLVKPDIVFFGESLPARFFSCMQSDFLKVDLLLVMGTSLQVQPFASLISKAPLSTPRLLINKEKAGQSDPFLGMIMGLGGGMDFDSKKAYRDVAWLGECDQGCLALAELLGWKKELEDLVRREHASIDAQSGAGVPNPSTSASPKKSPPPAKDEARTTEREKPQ

sirtuin = details: cited from earlier work; for % Activity at 50 μM / % Activity at 500 μM: residual enzyme activity relative to control with no inhibitor; for IC50: analogs of compound 12

SMILES | inhibition at 300 μM (%) (SIRT1) | IC50 (SIRT1) [µM] | other results
COC(=O)CC(=O)NCCCC[C@H](NC(=O)OCc1ccccc1)C(=O)Nc1ccccc1 [2j] | 92 ± 1.2 | 35 ± 5.2 | 
CNC(=O)CC(=O)NCCCC[C@H](NC(=O)OCc1ccccc1)C(=O)Nc1ccccc1 [2t] | 24 ± 2.5 | > 300 | 
[H]/N=C(\c1ccc2ccccc2c1)c1ccccc1Cc1ccccc1 [CSC22] |  |  | Sirt2 effect (SIRT2): inhibition
O=C(CC(=O)C(F)(F)F)NCCCC[C@H](NC(=O)OCc1ccccc1)C(=O)Nc1ccccc1 [2y] | 7.9 ± 0.92 | > 300 | 
Oc1ccc(Cc2ccccc2)cc1 [compound 72030] |  |  | % Activity at 50 μM (sirtuin): 100%; % Activity at 500 μM (sirtuin): 88%
CC(C)C(=O)CCN1C(=O)c2ccccc2C1=O [compound 04265] |  |  | IC50 (sirtuin): No inhibition
CCCC(=O)CC(=O)NCCCC[C@H](NC(=O)OCc1ccccc1)C(=O)Nc1ccccc1 [2x] | 78 ± 5.2 |  | 
O=C1c2ccccc2C(=O)N1CCBr [compound 91032] |  |  | IC50 (sirtuin): No inhibition
O=C(O)CCCN1C(=O)c2ccccc2C1=O [compound 47032] |  |  | IC50 (sirtuin): No inhibition
Cc1cc(=O)oc2cc(OC(=O)COc3ccccc3)ccc12 [compound 5237467] |  |  | % Activity at 50 μM (sirtuin): 91%; % Activity at 500 μM (sirtuin): 45%
Cc1ccc(OCCCC(=O)Oc2ccc3c(C)cc(=O)oc3c2)cc1 [compound 6836332] |  |  | % Activity at 50 μM (sirtuin): 99%; % Activity at 500 μM (sirtuin): 57%
O=C(Cc1ccc(C(F)(F)F)cc1)NCCCC[C@H](NC(=O)OCc1ccccc1)C(=O)Nc1ccccc1 [2g] | 41 ± 20 | > 300 | 
CSCC(=O)NCCCC[C@H](NC(=O)OCc1ccccc1)C(=O)Nc1ccccc1 [2c] | 32 ± 20 | > 300 | 
O=C(O)CCN1C(=O)c2ccc(-c3nc4ccccc4c(=O)o3)cc2C1=O [compound 47054] |  |  | IC50 (sirtuin): No inhibition
CCCCOC(=O)CC(=O)NCCCC[C@H](NC(=O)OCc1ccccc1)C(=O)Nc1ccccc1 [2n] | 64 ± 6.1 | 73 ± 3.2 | 
CC(C)(C)OC(=O)CC(=O)NCCCC[C@H](NC(=O)OCc1ccccc1)C(=O)Nc1ccccc1 [2o] | 6.0 ± 0.64 | > 300 | 
O=C(CC(=O)c1ccccc1)NCCCC[C@H](NC(=O)OCc1ccccc1)C(=O)Nc1ccccc1 [2z] | 37 ± 7.4 | > 300 | 
[H]/N=C(\c1cc(C)cc(C)c1)c1ccccc1Cc1cccc2ccccc12 [CSC23] |  |  | Sirt2 effect (SIRT2): inhibition
CCc1ccc(OCCCC(=O)Oc2ccc3c(C)cc(=O)oc3c2)cc1 [compound 6802623] |  |  | % Activity at 50 μM (sirtuin): 86%; % Activity at 500 μM (sirtuin): 53%

SMILES | inhibition at 300 μM (%) (SIRT1) | IC50 (SIRT1) [µM] | other results
O=C(CC(=O)OCC1CC1)NCCCC[C@H](NC(=O)OCc1ccccc1)C(=O)Nc1ccccc1 [2p] | 93 ± 1.2 | 14 ± 2.6 | 
O=C(CC(=O)OCc1ccccc1)NCCCC[C@H](NC(=O)OCc1ccccc1)C(=O)Nc1ccccc1 [2r] | 71 ± 4.3 | 96 ± 4.8 | 
O=C(Cc1ccccc1C(F)(F)F)NCCCC[C@H](NC(=O)OCc1ccccc1)C(=O)Nc1ccccc1 [2f] | 49 ± 13 | > 300 | 
NC(=O)CC(=O)NCCCC[C@H](NC(=O)OCc1ccccc1)C(=O)Nc1ccccc1 [2s] | 25 ± 2.3 | > 300 | 
COc1cc2c(cc1O)CN(C)CC2 [7-133] |  |  | % Activity at 50 μM (sirtuin): 100%; % Activity at 500 μM (sirtuin): 98%
Cc1cc(=O)oc2cc(OC(=O)CCCOc3ccc(Cl)cc3Cl)ccc12 [compound 5366302] |  |  | % Activity at 50 μM (sirtuin): 90%; % Activity at 500 μM (sirtuin): 68%
CC(=O)CC(=O)NCCCC[C@H](NC(=O)OCc1ccccc1)C(=O)Nc1ccccc1 [2v] | 45 ± 6.0 | > 300 | 
OC(c1ccccc1)c1ccc(C(F)(F)F)cc1 (stereo not drawn) [compound 97211] |  |  | % Activity at 50 μM (sirtuin): 100%; % Activity at 500 μM (sirtuin): 81%
Cc1cc(N2CCOCC2)nc2ccc(Cc3ccc4nc(N5CCOCC5)cc(C)c4c3)cc12 [CSC4] |  |  | Sirt2 effect (SIRT2): inhibition
C(=C1c2ccccc2-c2ccccc21)c1ccc(N=C2c3ccccc3-c3ccccc32)cc1 [CSC2] |  |  | Sirt2 effect (SIRT2): inhibition
COc1ccc(OCCCC(=O)Oc2ccc3c(C)cc(=O)oc3c2)cc1 [compound 6959933] |  |  | % Activity at 50 μM (sirtuin): 93%; % Activity at 500 μM (sirtuin): 35%
N#CCC(=O)NCCCC[C@H](NC(=O)OCc1ccccc1)C(=O)Nc1ccccc1 [2a] | 50 ± 7.9 |  | 
O=C(CC(F)(F)F)NCCCC[C@H](NC(=O)OCc1ccccc1)C(=O)Nc1ccccc1 [2b] | 44 ± 17 | > 300 | 
COC/C=C\C1c2cc(O)c(OC)cc2CCN1C (stereo not drawn) [7-129] |  |  | % Activity at 50 μM (sirtuin): 97%; % Activity at 500 μM (sirtuin): 94%
Cc1ccc(OCCCC(=O)Oc2ccc3c(C)cc(=O)oc3c2)c(C)c1 [compound 7988362] |  |  | % Activity at 50 μM (sirtuin): 90%; % Activity at 500 μM (sirtuin): 51%
O=C(O)CCN1C(=O)c2cc(Cl)c(Cl)cc2C1=O [compound 39008] |  |  | IC50 (sirtuin): No inhibition
Cc1cccc(OCC(=O)Oc2ccc3c(C)cc(=O)oc3c2)c1 [compound 5140108] |  |  | % Activity at 50 μM (sirtuin): 90%; % Activity at 500 μM (sirtuin): 13%
CCOC(=O)CC(=O)NCCCC[C@H](NC(=O)OCc1ccccc1)C(=O)Nc1ccccc1 [2k] | 91 ± 1.3 | 3.9 ± 0.29 | 
Cc1cc(Cc2cc(C)c(O)c(C)c2)cc(C)c1O [compound 97252] |  |  | % Activity at 50 μM (sirtuin): 89%; % Activity at 500 μM (sirtuin): 43%

SMILES | inhibition at 300 μM (%) (SIRT1) | IC50 (SIRT1) [µM] | other results
CC(C)OC(=O)CC(=O)NCCCC[C@H](NC(=O)OCc1ccccc1)C(=O)Nc1ccccc1 [2m] | 72 ± 5.1 | 47 ± 5.3 | 
O=C(Cc1ccccc1[N+](=O)[O-])NCCCC[C@H](NC(=O)OCc1ccccc1)C(=O)Nc1ccccc1 [2h] | 40 ± 12 | > 300 | 
O=C(Cc1ccc([N+](=O)[O-])cc1)NCCCC[C@H](NC(=O)OCc1ccccc1)C(=O)Nc1ccccc1 [2i] | 51 ± 17 |  | 
COCCCC1c2cc(O)c(OC)cc2CCN1C (stereo not drawn) [7-128] |  |  | % Activity at 50 μM (sirtuin): 99%; % Activity at 500 μM (sirtuin): 92%
COCC#CC1(C)c2cc(O)c(OC)cc2CCN1C (stereo not drawn) [7-123] |  |  | % Activity at 50 μM (sirtuin): 100%; % Activity at 500 μM (sirtuin): 100%
[H]/N=C(\c1ccccc1Cc1cccc2ccccc12)c1ccc(C)c2ccccc12 [CSC24] |  |  | Sirt2 effect (SIRT2): inhibition
C[S+]([O-])CCC(C(=O)O)N1C(=O)c2ccccc2C1=O (stereo not drawn) [compound 00032] |  |  | IC50 (sirtuin): No inhibition
CS(=O)(=O)CC(=O)NCCCC[C@H](NC(=O)OCc1ccccc1)C(=O)Nc1ccccc1 [2e] | 56 ± 1.9 |  | 
C#CC1c2cc(O)c(OC)cc2CCN1C (stereo not drawn) [7-52] |  |  | % Activity at 50 μM (sirtuin): 100%; % Activity at 500 μM (sirtuin): 86%
CC12Cc3cnc(-c4ccccc4)nc3CC1CCC1C2CCC2(C)C1CCC2(C)O (stereo not drawn) [CSC13] |  |  | Sirt2 effect (SIRT2): inhibition
CCC(=O)CC(=O)NCCCC[C@H](NC(=O)OCc1ccccc1)C(=O)Nc1ccccc1 [2w] | 67 ± 1.2 | 88 ± 3.9 | 
COCC#CC1c2cc(O)c(OC)cc2CCN1Cc1ccc(OC)cc1 (stereo not drawn) [Compound 14b] |  |  | % Activity at 50 μM (sirtuin): 92%; % Activity at 500 μM (sirtuin): 2%
Nc1ccc2c(c1)C(=O)N(CCC(=O)O)C2 [compound 42071] |  |  | IC50 (sirtuin): No inhibition
COc1ccc2c(c1)Cc1cc(/N=[N+](\[O-])c3ccc4c(c3)Cc3cc(OC)ccc3-4)ccc1-2 [CSC32] |  |  | Sirt2 effect (SIRT2): inhibition
O=C(CC(=O)OCC(F)(F)F)NCCCC[C@H](NC(=O)OCc1ccccc1)C(=O)Nc1ccccc1 [2q] | 94 ± 1.5 | 15 ± 3.1 | 
C[S+]([O-])CC(=O)NCCCC[C@H](NC(=O)OCc1ccccc1)C(=O)Nc1ccccc1 (stereo partly drawn) [2d] | 46 ± 3.0 | > 300 | 
CCCOC(=O)CC(=O)NCCCC[C@H](NC(=O)OCc1ccccc1)C(=O)Nc1ccccc1 [2l] | 71 ± 0.72 | 62 ± 3.7 | 
Nc1cccc(Cc2cccc(N)c2)c1 [compound 56413] |  |  | % Activity at 50 μM (sirtuin): 100%; % Activity at 500 μM (sirtuin): 100%
CN(C)C(=O)CC(=O)NCCCC[C@H](NC(=O)OCc1ccccc1)C(=O)Nc1ccccc1 [2u] | 20 ± 1.3 | > 300 | 
